Among the test systems are SF-268 CNS; SF-539 CNS; LOX IMVI melanoma; HCC-2998 colon; K-562 leukemia; HT29 colon; MALME-3M melanoma; HL-60(TB) leukemia; NCI-H460 lung.
Holding throughout (assay): DTP human tumour cell line panel, 48 h

The values that follow come from PubChem BioAssay (NCI).

One may read the GI50 as the concentration that inhibits growth by half. What is called TGI is the concentration at which net growth stops.

Values joined by “and” are separate entries in the source; they are usually repeats but may differ in a detail not shown here. Equal entries are not always repeated.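 Method: 48-hour compound exposure of cells in 96-well plates, five concentrations, linear interpolation of endpoints. At the GI50, growth is halved. TGI marks complete inhibition of growth.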

For the compound `CCCCCCCCCCCCCCCC(=O)N[C@H]1CCc2cc(OC)c(OC)c(OC)c2-c2ccc(SC)c(=O)cc21`, the GI50 in the test on SF-268 CNS was 1.63 µM; in the test on SF-539 CNS it was 1.24 µM; with HCC-2998 colon, 2.42 µM; with K-562 leukemia it was 0.709 µM; in the test with HT29 colon it was 1.81 µM; in the test on MALME-3M melanoma, 0.345 µM. The GI50 with HL-60(TB) leukemia was 2.01 µM; in the test on NCI-H460 lung, 2.97 µM. The TGI was 7.59 µM and 10.9 µM in the test on SF-268 CNS; 2.08 µM and 3.64 µM in the test on SF-539 CNS; 11.9 µM in the test on LOX IMVI melanoma; 1.87 µM and 6.82 µM with HCC-2998 colon; 11.1 µM and 14.5 µM in the test with K-562 leukemia; 0.853 µM and 4.66 µM in the test on HT29 colon. Further, the TGI with MALME-3M melanoma is 16.3 µM and 1.67 µM; in the test with HL-60(TB) leukemia, 1.35 µM and 6.82 µM; in the test on NCI-H460 lung it was 2.15 µM and 10.1 µM.

Regarding `O=C1CC2Sc3ccccc3N=C2N1c1ccc(Cl)cc1Cl` (centres undefined), the TGI with SF-268 CNS was more than 100 µM; in the test on LOX IMVI melanoma, more than 100 µM; in the test with HCC-2998 colon, more than 100 µM; in the test with HT29 colon, more than 100 µM; with MALME-3M melanoma, more than 100 µM; in the test with HL-60(TB) leukemia it was 72.1 µM. In addition, the TGI in the test on NCI-H460 lung is more than 100 µM.

As for `COc1cc2cc3c4c(cc(OC)c(OC)c4c2cc1OC)CCN3C(=O)OCCBr`, the TGI in the test on SF-268 CNS, with SF-539 CNS, in the test with LOX IMVI melanoma, in the test with HCC-2998 colon, in the test on HT29 colon and in the test on MALME-3M melanoma was more than 100 µM throughout. Besides, the TGI in the test with HL-60(TB) leukemia and in the test on NCI-H460 lung was more than 100 µM each time.

Turning to `CCN1CC2(C)CC[C@@H](OC)C34[C@@H]2[C@H](OC(C)=O)C2(OCO[C@@]25C[C@H](OC)C2C[C@]3(O)[C@@H]5[C@H]2O)[C@H]14`, the TGI with SF-268 CNS, with SF-539 CNS, in the test with LOX IMVI melanoma, in the test on HCC-2998 colon, in the test with HT29 colon and with MALME-3M melanoma was more than 100 µM in each case. The TGI in the test with HL-60(TB) leukemia and in the test with NCI-H460 lung was more than 100 µM throughout.

Consider `Clc1ccccc1C1=NN(c2ccccc2)C2c3cc(Br)ccc3OCC12` (centres undefined), for which the TGI in the test on SF-268 CNS, in the test with SF-539 CNS, in the test on HCC-2998 colon, in the test on K-562 leukemia, with HT29 colon and in the test with MALME-3M melanoma was more than 100 µM in each case. The TGI with HL-60(TB) leukemia and in the test on NCI-H460 lung was more than 100 µM throughout.

In the case of `CC(C)=C1CCC(CN2CCCC2)C1=O` (centres undefined), the TGI with SF-268 CNS is 65.7 µM; in the test with SF-539 CNS, more than 100 µM; in the test with LOX IMVI melanoma, more than 100 µM; in the test on HCC-2998 colon, 34.6 µM; in the test with K-562 leukemia it was more than 100 µM; in the test on HT29 colon, 53.5 µM. For the same compound, the figures for the TGI with MALME-3M melanoma, with HL-60(TB) leukemia and in the test with NCI-H460 lung were 37.2 µM, 50.8 µM and more than 100 µM, respectively.

On to `Cc1cccc(N2C(=O)/C(=C/c3ccc(N(CCC#N)CCC#N)cc3C)N=C2c2cc([N+](=O)[O-])ccc2Cl)c1`, for which the TGI with SF-268 CNS, in the test with SF-539 CNS, in the test on HCC-2998 colon, in the test with K-562 leukemia, in the test with HT29 colon and in the test on MALME-3M melanoma was more than 100 µM in each case. The concentration for total growth inhibition (TGI) with HL-60(TB) leukemia and in the test on NCI-H460 lung was more than 100 µM each time.

As for `O=C1/C(=C/c2ccccc2)CN(C(=O)Oc2ccc([N+](=O)[O-])cc2)C/C1=C\c1ccccc1`, the GI50 in the test with SF-268 CNS was 3.11 µM; in the test with LOX IMVI melanoma, 1.57 µM; with HCC-2998 colon, 1.33 µM; in the test with K-562 leukemia, 1.79 µM; in the test with HL-60(TB) leukemia, 1.73 µM. The TGI is 1.26 µM and 3.36 µM with LOX IMVI melanoma; 5.99 µM and 3.3 µM with HCC-2998 colon; 5.33 µM in the test on K-562 leukemia; 4.36 µM and 4.04 µM in the test with HT29 colon; 3.97 µM and 5.9 µM in the test on HL-60(TB) leukemia.

As to `CC[C@@]1(O)C(=O)OCc2c1cc1n(c2=O)Cc2cc3c(NC(C)=O)c(O)ccc3nc2-1`, the GI50 in the test with SF-268 CNS is 0.417 µM; with SF-539 CNS it was 0.388 µM; in the test on LOX IMVI melanoma it was 0.497 µM; in the test on HCC-2998 colon it was 8.21 µM; in the test with K-562 leukemia, 3.47 µM; in the test with HT29 colon it was 13.7 µM. Also, the GI50 in the test on MALME-3M melanoma is 4.83 µM; in the test with HL-60(TB) leukemia, 0.416 µM; in the test with NCI-H460 lung, 0.288 µM. Moreover, the TGI was more than 52.3 µM with SF-268 CNS; 1.96 µM with SF-539 CNS; 6.31 µM in the test on LOX IMVI melanoma; 47.1 µM in the test on HCC-2998 colon; more than 70.2 µM in the test with K-562 leukemia; more than 77.5 µM in the test on HT29 colon. Moreover, the TGI came out at 65.5 µM in the test with MALME-3M melanoma, 5.05 µM in the test with HL-60(TB) leukemia and 4.24 µM with NCI-H460 lung.

As for `COc1ccccc1NC(=O)C(=O)C1C(=O)Nc2ccccc2S1=O` (centres undefined), the TGI in the test on SF-268 CNS, with SF-539 CNS, in the test on LOX IMVI melanoma, in the test on HCC-2998 colon, in the test on K-562 leukemia and in the test on HT29 colon was more than 100 µM each time. The TGI in the test on MALME-3M melanoma, with HL-60(TB) leukemia and in the test on NCI-H460 lung was more than 100 µM throughout.

Consider `C/C(=N/Nc1ccc([N+](=O)[O-])cc1[N+](=O)[O-])C(CC(C(=O)Nc1ccccc1C)/C(C)=N\Nc1ccc([N+](=O)[O-])cc1[N+](=O)[O-])C(=O)Nc1ccccc1C` (centres undefined), for which the TGI was 23.7 µM with SF-268 CNS; 25.8 µM in the test on SF-539 CNS; 36 µM with LOX IMVI melanoma; 60.8 µM in the test on HCC-2998 colon; more than 100 µM in the test on K-562 leukemia; 28 µM with HT29 colon. The TGI with MALME-3M melanoma is more than 63.1 µM; with HL-60(TB) leukemia, more than 100 µM; in the test on NCI-H460 lung, 36.4 µM.

On to `CCOC(=N)CC(=O)NC(C)c1ccccc1` (centres undefined), for which the TGI with SF-268 CNS, with SF-539 CNS, with LOX IMVI melanoma, in the test with HCC-2998 colon, with K-562 leukemia and in the test on HT29 colon was more than 100 µM throughout. In addition, the TGI in the test with MALME-3M melanoma, in the test with HL-60(TB) leukemia and with NCI-H460 lung was more than 100 µM in each case.

Regarding `C/C(=N\NC(=S)N1CCC(C2CCN(C(=S)N/N=C(\C)c3ccccn3)CC2)CC1)c1ccccn1`, the TGI in the test with SF-268 CNS, in the test on SF-539 CNS, with LOX IMVI melanoma, in the test with HCC-2998 colon, with K-562 leukemia and in the test on HT29 colon was more than 100 µM each time. Further, the concentration for total growth inhibition (TGI) with MALME-3M melanoma, in the test on HL-60(TB) leukemia and with NCI-H460 lung was more than 100 µM throughout.
